The numbers were not newly measured in patent publication US20130230609A1, “ANTIMICROBIAL/PRESERVATIVE COMPOSITIONS COMPRISING BOTANICALS” (priority 2012, published 2013), which cites them from elsewhere.

For the substance zinc glycerate, the “water solubility (in words)” value is “moderately water soluble”.
As to zinc picolinate, the “water solubility (in words)” value is reported as “moderately water soluble”.
